Patent publication US20170038686A1, “ANTHRAQUINONE COMPOUND USED FOR COLOR FILTER OF LCD” (Rohm and Haas Electronic Materials LLC, priority 2014, published 2017)

Assays:
Format in all cases: physicochemical
[1] = Solubility of dye in PGMEA; conditions: solvent PGMEA
[2] = Thermal stability of films (chromaticity difference ΔEab before/after hard baking); conditions: for ΔEab after baking at 230° C. for another 1 h: film further baked at 230° C. under air for another 1 h; for ΔEab after baking at 230° C. for 1 h: film with alkaline soluble acrylic resin, hard bake 230° C. under air 1 h
Procedure: For Inventive Example 1, 0.15 g of Dye 1, 1.35 g of PGMEA and 1 g of alkaline soluble acrylic resin solution (MIPHOTO RPR4022, supplied from Miwan Commercial Co., Ltd., 25 to 35% of solid content in methyl 3-methoxypropionate) were mixed and stirred for 2 hours at room temperature using a shaker. For Inventive Example 2, 0.15 g of a mixture of Dye land Dye 2 was used instead of Dye 1. The solutions were filtered with a 0.45 μm PTFE filter to get rid of big particles. Then the filtered solutions were spin coated onto a clean glass substrate with 200 and 270 rpm spin speed for 18 seconds respectively. The obtained films were first dried at 90° C. under air atmosphere for 30 minutes, and then hard baked at 230° C. under air atmosphere for 1 hour. The CIE values (xyY values and lab values) and the UV-Vis were measured before and after the hard bake.
The obtained dry films were further baked at 230° C. under air for 1 hour to evaluate thermal stability of the films. Optical performance after baking (AEab value) were 2.3 (Inventive Example 1) and 1.8 (Inventive Example 2), and the one of after further baking were 3.0 (Inventive Example 1) and 2.7 (Inventive Example 2). A smaller AEab value indicates better heat resistance.
(§1) <Performance Evaluation> • (1) Thermal stability of dyes (Mass loss measured by TGA): • The thermal stability of dye itself was determined by the mass loss of dye measured by TGA under air atmosphere at 230° C. for 1 hour. This evaluation reflects chemical stability of the dye itself. • (2) Film thickness: • Film thickness is measured by scanning the difference in height across the boundary of film and glass substrate with atomic force microscope. • (3) Chromaticity coordinates: • The chromaticity coordinate of film on a glass sheet is directly recorded with UltraScan Pro (Hunterlab) colorimeter. The light source is D65/10. • (4) Thermal stability of films (Chromaticity): • The wet film after spin coating is dried in oven at 90° C. for 30 minutes and then soft baked at 150° C. for 15 minutes. The chromaticity coordinates (L, a, b) are recorded with UltraScan Pro (Hunterlab) colorimeter. D65/10 light source is used and results are based on CIE Lab coordinates. After that the film is hard baked at target temperature (230° C.) for 1 hour and the new chromaticity coordinates (L′, a′, b′) are recorded with the method above. The thermal stability of a film is indicated by the difference of chromaticity coordinate before and after hard baking represented by the following formula;
ΔE=√{square root over ((L−L′)^2+(a−a′)^2+(b−b′)^2)}

[3] = Thermal stability of dyes (mass loss measured by TGA); conditions: 230° C. for 1 hour, air atmosphere
Procedure: as §1

SMILES	Solubility in PGMEA [1] [wt %]	ΔEab after baking at 230° C. for another 1 h [2]	ΔEab after baking at 230° C. for 1 h [2]	Mass loss by TGA after baking [3] [wt. %]
Cc1cc(C)c(Nc2ccc(Nc3c(C)cc(O)cc3C)c3c2C(=O)c2ccccc2C3=O)c(C)c1 [(1-((4-hydroxy-2,6-dimethylphenyl)amino)-4-(mesitylamino)-anthraquinone]	2.8	6.0	6.8	–
Cc1cc(C)c(Nc2ccc(Nc3c(C)cc(OCC(O)COc4ccc(C(C)(C)c5ccc(OCC(O)COc6cc(C)c(Nc7ccc(Nc8c(C)cc(C)cc8C)c8c7C(=O)c7ccccc7C8=O)c(C)c6)cc5)cc4)cc3C)c3c2C(=O)c2ccccc2C3=O)c(C)c1 (stereo not drawn) [Dye 1]	11.2	3.0	2.3	2
CC(C)Nc1ccc(NC(C)C)c2c1C(=O)c1ccccc1C2=O [Solvent Blue 36]	1.92	–	33 (color	–
Cc1cc(C)c(Nc2ccc(Nc3c(C)cc(C)cc3C)c3c2C(=O)c2ccccc2C3=O)c(C)c1 [Solvent Blue 104, 1,4-bis(mesitylamino)anthraquinone]	0.6	6.1	7.9	–
